From US20090215807A1, “Novel Diazaspiroalkanes and Their Use for Treatment of CCR8 Mediated Diseases” (priority 2005, published 2009) come the findings set out here.

A word on the IC50: it is the point on the concentration scale where inhibition reaches its midpoint.

Data set [1] has as its target T1, human recombinant chemokine CCR8 receptor (Homo sapiens, UniProt P51685).
T1 construct: purchased Euroscreen ES-136-M; host or cells: CHO-K1 cells (membranes)
Put plainly: CCL1 SPA binding assay. To be noted: inhibition of 125I CCL1 binding to CCR8 membranes from transfected CHO-K1 cells. On the procedure:
1 μl of DMSO was added to the blank control wells and 1 μl unlabeled CCL1 (300 nM) was added to background control wells. 50 μl of the SPA bead-membrane mixture was added into each well. […] Plates were then incubated at RT with shaking (700 rpm) for 90 minutes followed by 30 minutes at RT without shaking. The plate was read in a Wallac MicroBeta counter for 2 minutes/well.

Data set [2] is described as follows: Human microsomal stability assay. It counts as in vitro ADME. To be noted: human microsomes (Xenotech); human microsomes 1 mg protein/mL, compound 2.5 μM, NADPH 2 mM, pH 7.4, 37° C.; read-out: Intrinsic clearance. The procedure: Human Microsomal Stability Assay
Samples at four time-points (0, 5, 15 and 30 minutes) are withdrawn and the enzymatic reaction is terminated by protein precipitation with 1% acetic acid in acetonitrile. The incubations are performed on a thermostated plate (37° C.) placed on a Tecan worktable, and all liquid handling was performed robotically. After centrifugation of the samples, the supernatants are pooled in sets of four before they are analysed by liquid chromatography with tandem mass spectrometry detection (LC/MS/MS) using multiple reaction monitoring (MRM). Data are presented as intrinsic Clearance (CLint), μl/min/mg protein, calculated from the initial linear part of the compound disappearance curve.

T1 sequence (P51685 whole entry): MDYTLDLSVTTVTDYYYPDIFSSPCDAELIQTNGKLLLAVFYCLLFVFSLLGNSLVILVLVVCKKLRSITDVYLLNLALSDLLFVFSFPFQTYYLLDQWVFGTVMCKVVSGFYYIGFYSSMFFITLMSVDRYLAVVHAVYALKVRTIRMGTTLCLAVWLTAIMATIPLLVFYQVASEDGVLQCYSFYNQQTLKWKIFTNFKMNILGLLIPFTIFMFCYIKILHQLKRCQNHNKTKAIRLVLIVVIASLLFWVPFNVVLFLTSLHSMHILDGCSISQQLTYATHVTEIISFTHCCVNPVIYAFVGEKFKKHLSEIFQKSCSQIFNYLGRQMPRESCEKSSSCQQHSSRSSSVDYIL

With `CC(C)COc1ccccc1CN1CCC2(CC1)CCN(C(=O)c1cc[n+]([O-])cc1)CC2` [A, 3-(2-isobutoxybenzyl)-9-(1-oxidoisonicotinoyl)-3,9-diazaspiro[5.5]undecane, reference compound], the IC50 in data set [1] was 2670 nM.

As for `CC(C)COc1ccccc1CN1CCC2(CC1)CCN(C(=O)c1ccc[n+]([O-])c1)CC2` [B, 3-(2-isobutoxybenzyl)-9-[(1-oxidopyridin-3-yl)carbonyl]-3,9-diazaspiro[5.5]undecane, reference compound], the half-inhibitory concentration (IC50) in data set [1] was determined as 3050 nM.

Consider `O=C(c1cccc[n+]1[O-])N1CCC2(CCN(Cc3cccc(Oc4ccccc4)c3)CC2)CC1` [Example 1, 3-[(1-oxidopyridin-2-yl)carbonyl]-9-(3-phenoxybenzyl)-3,9-diazaspiro[5.5]undecane], for which, in data set [2], the microsomal CLint at 2.5 μM was less than 10 µL/min/mg. Also, in data set [1], the IC50 stood at 193 nM.

Regarding `O=C(c1cc[n+]([O-])cc1)N1CCC2(CCN(Cc3cccc(Oc4ccccc4)c3)CC2)CC1` [Example 2, 3-(1-oxidoisonicotinoyl)-9-(3-phenoxybenzyl)-3,9-diazaspiro[5.5]undecane], the microsomal CLint at 2.5 μM in data set [2] is less than 10 µL/min/mg. In data set [1], the IC50 came to 305 nM.

In the case of `COc1ccccc1Oc1ccccc1CN1CCC2(CC1)CCN(C(=O)c1cccc[n+]1[O-])CC2` [Example 3, 3-[2-(2-methoxyphenoxy)benzyl]-9-[(1-oxidopyridin-2-yl)carbonyl]-3,9-diazaspiro[5.5]undecane], in data set [2], the microsomal CLint at 2.5 μM is less than 10 µL/min/mg. For the same compound, the IC50 in data set [1] turned out to be 87 nM.

For `COc1ccccc1Oc1ccccc1CN1CCC2(CC1)CCN(C(=O)c1cc[n+]([O-])cc1)CC2` [Example 4, 3-[2-(2-methoxyphenoxy)benzyl]-9-(1-oxidoisonicotinoyl)-3,9-diazaspiro[5.5]undecane], the microsomal CLint at 2.5 μM in data set [2] was less than 10 µL/min/mg. The IC50 in data set [1] came to 117 nM.

Turning to `COc1ccccc1Oc1ccccc1CN1CCC2(CC1)CCN(C(=O)c1ccc[n+]([O-])c1)CC2` [Example 5, 3-[2-(2-methoxyphenoxy)benzyl]-9-[(1-oxidopyridin-3-yl)carbonyl]-3,9-diazaspiro[5.5]undecane], the microsomal CLint at 2.5 μM in data set [2] is less than 10 µL/min/mg. In addition, the IC50 in data set [1] is 268 nM.

Regarding `COc1ccccc1Oc1cccc(CN2CCC3(CC2)CCN(C(=O)c2ccc[n+]([O-])c2)CC3)c1` [Example 8, 3-[3-(2-methoxyphenoxy)benzyl]-9-[(1-oxidopyridin-3-yl)carbonyl]-3,9-diazaspiro[5.5]undecane], in data set [2], the microsomal CLint at 2.5 μM was less than 10 µL/min/mg. Moreover, the IC50 in data set [1] turned out to be 207 nM.

In the case of `COc1ccccc1Oc1ccccc1CN1CCC2(CC1)CCN(C(=O)c1ccncc1)CC2` [X, 3-isonicotinoyl-9-[2-(2-methoxyphenoxy)benzyl]-3,9-diazaspiro[5.5]undecane, reference compound], the microsomal CLint at 2.5 μM in data set [2] was 89 µL/min/mg.

For the compound `COc1ccccc1Oc1cccc(CN2CCC3(CC2)CCN(C(=O)c2ccncc2)CC3)c1` [Y, 3-isonicotinoyl-9-[3-(2-methoxyphenoxy)benzyl]-3,9-diazaspiro[5,5]undecane, reference compound], the microsomal CLint at 2.5 μM in data set [2] came to 183 µL/min/mg.
